Key:
[1] = tested on: LNCaP human prostate adenocarcinoma cells; assay: MTT cytotoxicity, 72 h; type: cell-based; conditions: Homo sapiens, LNCaP, octanoic acid
Experimental: (§1) Cytotoxic activity of the compounds tested in the present work was screened on the panel of malignant and nonmalignant cell lines using the colorimetric MTT assay and 72 h of drug incubation period.
(§2) Cell death was evaluated using a system based on the tetrazolium compound MTT [3-(4,5-dimethyl-2-thiazolyl)-2,5-diphenyl-2H-tetrazolium bromide]. The cells were seeded in 96-well tissue culture plates at a density of 10^4 A2780cisR, LNCaP, HSF cells/well, 3 × 10^3 CHO-K1 or 4 × 10^3 MCF7, HCT-116 and MRC5 pd30 cells/well in 100 μL of medium. After overnight incubation (16 h), the cells were treated with the compounds in a final volume of 200 μL/well. After additional 72 h, 10 μL of a freshly diluted MTT solution (2.5 mg mL^−1) was added to each well, and the plate was incubated at 37 °C in a humidified 5% CO2 atmosphere for 4 h. At the end of the incubation period, the medium was removed, and the formazan product was dissolved in 100 μL of DMSO. The cell viability was evaluated by measurement of the absorbance at 570 nm, using an Absorbance Reader SUNRISE TECAN SCHOELLER. IC50 values were calculated from curves constructed by plotting cell survival (%) versus drug concentration (μM). All experiments were made in triplicate. The reading values were converted to the percentage of control (% cell survival). Cytotoxic effects were expressed as IC50.

[2] = tested on: MRC-5 (PD30) human fetal lung fibroblasts; assay: MTT cytotoxicity, 72 h; type: cell-based; conditions: Homo sapiens, MRC5, octanoic acid
Experimental: as §1, §2

[3] = tested on: HCT-116 human colorectal carcinoma cells; assay: MTT cytotoxicity, 72 h; type: cell-based; conditions: Homo sapiens, HCT-116; MTT, 72 h, octanoic acid
Experimental: as §1, §2

[4] = tested on: HSF human primary skin fibroblasts; assay: MTT cytotoxicity, 72 h; type: cell-based; conditions: Homo sapiens, Skin fibroblast, octanoic acid
Experimental: as §1, §2

[5] = tested on: MCF-7 human breast cancer cells; assay: MTT cytotoxicity, 72 h; type: cell-based; conditions: octanoic acid
Experimental: as §1, §2

[6] = tested on: CHO-K1 Chinese hamster ovary cells; assay: MTT cytotoxicity, 72 h; type: cell-based; conditions: Cricetulus griseus, CHO-K1, octanoic acid
Experimental: as §1, §2

[7] = tested on: A2780cisR human ovarian carcinoma cells; assay: MTT cytotoxicity, 72 h; type: cell-based
Experimental: as §1, §2

[8] = tested on: HDAC enzymes in HCT-116 cells; assay: HDAC fluorimetric cellular activity assay; type: cell-based, human; conditions: 1 mM (1000-fold higher concentration)
Experimental: These epigenetic processes consist in downregulation of HDACs and yet other biochemical processes triggered by VPA released in cells by the reduction of the Pt(IV) prodrug. Moreover, it has also been shown[15] that non-branched MCFAs may act as HDAC inhibitors. […] HDAC activity was analyzed in HCT-116 cells and confirmed by an independent set of experiments on A2780 cells (data not shown) by using a commercial HDAC fluorimetric cellular activity kit as described in the section Materials and methods.
Figure 3 Activity of HDAC enzymes in HCT-116 cells treated with the compounds tested in the present work; their concentration was 1 µM except the concentration of free OA, which was 1 mM. […] The data represent a mean from three independent experiments, each performed in quadruplicate. The error bars are the SDs.
The activity of HDAC enzymes was analyzed in HCT-116 cells treated with compounds tested in the present work (1 µM). […] The activity of HDAC was analyzed using the HDAC fluorimetric cellular activity assay kit (Enzo Life Sciences; Farmingdale, NY) in the whole cells according to manufacturer’s instructions. […] The plates were scanned on a fluorescence reader Infinite 200 (TECAN) (360 nm excitation, 460 nm emission).

[9] = tested on: A2780 human ovarian carcinoma cells; assay: MTT cytotoxicity, 72 h; type: cell-based; conditions: Homo sapiens, A2780; MTT, 72 h, octanoic acid
[10] = tested on: DNA methylation in HCT-116 cells; assay: DNA methylation analysis (Imprint methylated DNA quantification kit); type: cell-based, human; conditions: HCT-116, free OA at sufficiently high (milimolar) concentration
Experimental: Human colon adenocarcinoma cells HCT-116 were chosen as the model cellular system suitable for DNA methylation analysis because: (i) this human colorectal cancer cell line has been used as a prototypic model for analyses of the genetic basis of cancer, and the role of epigenetic changes in tumorigenesis; (ii) they have a propensity to both global DNA hypomethylation and to silence genes through promoter focal hypermethylation, [21]. HCT-116 cells were treated with the compounds at the concentrations indicated in Fig. 4A for 24 or 72 h and DNA was isolated for the complete methylation analysis as described in the experimental section. Decitabine (5-aza-2′-deoxycytidine), a hypomethylating agent which hypomethylates DNA by inhibiting DNMT, was used in these experiments as a […]. The IC50 values found for this agent in HCT-116 cells (the drug-treatment period was 72 h) was (7.5 ± 0.3) µM (Table 1).
Figure 4 Analysis of DNA methylation. (A) DNA was isolated from HCT-116 cells after the exposure to the agents at the concentrations indicated in the graph for 24 or 72 h. The levels of DNA methylation in the control was taken as 100%. The bars represent mean values from three independent experiments each performed in octuplicate. The error bars are the SDs. (B) DNMT activity in colon carcinoma cells HCT-116 treated for 24 h with the compounds tested in the present work. The DNMT activity in the control, untreated cells was taken as 100%. Error bars are the SDs and the stars at the top of bars denote a significant difference from the control with (*p < 0.05; **p < […]), calculated using […] student’s t-test. The bars represent mean values from three independent experiments, each performed in quadruplicate.
Human colon carcinoma cells (HCT-116) were seeded at the density 1.5 × 10^6 cells/dish. […] The DNA content in each sample was determined by UV spectrophotometry. DNA (200 ng) from the samples was loaded to the Imprint methylated DNA quantification kit (Sigma-Aldrich, USA). The level of methylated DNA was proportional to the absorbance measured at 450 nm.

[11] = tested on: DNMT enzymes in HCT-116 cells; assay: DNMT activity in nuclear extracts of treated cells; type: cell-based, human; set-up: unit of the concentration uncertain; conditions: HCT-116, 1 (unit uncertain), 24 h
Experimental: In these experiments, the total activity of DNMT enzymes was determined in nuclear extracts prepared from HCT-116 cells which were treated with the platinum compounds, free OA or decitabine for 24 h (Fig. 4B).
Human colon carcinoma cells (HCT-116) were seeded in 100 mm culture dishes at the density 1.5 × 10^6 cells/dish. Cells were harvested after 24 h of incubation with the compounds tested in the present work (1 µM). Nuclear extracts from the pellets were separated using EpiQuik Nuclear extraction kit I (Epigentek, NY) according to manufacturer’s instructions. Quantification of nuclear proteins was analyzed with the standard Bradford assay. The activity of DNMT enzymes was analyzed using the EpiQuik DNMT activity/inhibition assay Ultra kit (Epigentek, NY), according to the manufacturer´s protocol. Briefly, 10 µg of total nuclear protein was analyzed for its DNMT activity. The reaction time with a universal DNMT substrate stably coated onto microplate wells was 120 min at 37 °C. The final signal at the end of the ELISA reaction was detected at 450 nm (reference 620 nm). DNMT activity was normalized to controls and expressed in the percent or absolute values as OD h^−1 mg^−1, calculated as described in the manufacturer’s manual.

[12] = tested on: PNT1a; assay: MTT cytotoxicity, 72 h; type: cell-based; conditions: Homo sapiens, PNT1A, octanoic acid

CCCCCCCC(=O)O [OA, octanoic acid, reference compound]
IC50 [1]: 0.71 ± 0.12 mM | IC50 [2]: 7.67 ± 0.61 mM | IC50 [3]: 3.84 ± 0.39 mM | IC50 [4]: 9.74 ± 0.03 mM | IC50 ([5]; Homo sapiens, MCF7, 72 h): 16 mM | IC50 [5]: 16.2 ± 0.56 mM | IC50 [6]: 5.9 ± 0.7 mM | IC50 ([7]; Homo sapiens, A2780cisR, MTT, 72 h, octanoic acid): 0.76 ± 0.02 mM | RF, resistance factor ([7]; IC50 (resistant, A2780cisR)/IC50 (sensitive, A2780)): 0.5 | Efficiency to inhibit HDAC activity [8]: moderate inhibitory effect | IC50 [9]: 1.46 ± 0.1 mM | Change of DNA methylation [10]: capable of inducing DNA hypermethylation | Activity of DNMT enzymes [11]: enhanced activity of DNMT enzymes | IC50 [12]: 2.07 ± 0.03 mM

Source: publication PMC5473904, “Epigenetic and antitumor effects of platinum(IV)-octanoato conjugates” (Scientific Reports, 2017)
